Data published in ChEMBL document CHEMBL1201862, “PubChem BioAssay data set” (2004).
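A five-concentration, 48-hour dose response in 96-well plates underlies each endpoint, interpolated linearly between surrounding concentrations. The concentration for 50% growth inhibition is given as GI50.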 Active and inactive are the calls of the source. Cut-off read from the data, not from the text of the source: active = GI50 up to about 1.1 µM and inactive = higher.

Assays:
Test in all cases: NCI-60 cell line screen, 48 h
[1] = test system: MCF7
[2] = test system: OVCAR-4
[3] = test system: TK-10
[4] = test system: HCT-116
[5] = test system: T47D
[6] = test system: DU-145
[7] = test system: 786-0
[8] = test system: SF-268
[9] = test system: SK-MEL-5
[10] = test system: SR
[11] = test system: NCI-H522
[12] = test system: HT-29
[13] = test system: HOP-92
[14] = test system: RXF 393
[15] = test system: UACC-257
[16] = test system: NCI-H460
[17] = test system: HCT-15
[18] = test system: SF-539
[19] = test system: HOP-62
[20] = test system: MDA-MB-231
[21] = test system: SK-MEL-28
[22] = test system: NCI-H23
[23] = test system: BT-549
[24] = test system: M14
[25] = test system: NCI/ADR-RES
[26] = test system: RPMI-8226
[27] = test system: SNB-75
[28] = test system: A549
[29] = test system: Hs-578T
[30] = test system: UO-31
[31] = test system: KM12
[32] = test system: MDA-MB-435
[33] = test system: CAKI-1
[34] = test system: OVCAR-3
[35] = test system: OVCAR-5
[36] = test system: IGROV-1
[37] = test system: SF-295
[38] = test system: PC-3
[39] = test system: EKVX
[40] = test system: NCI-H226
[41] = test system: MDA-N
[42] = test system: HL-60
[43] = test system: K562
[44] = test system: A498
[45] = test system: SK-MEL-2
[46] = test system: HCC 2998
[47] = test system: U-251
[48] = test system: MOLT-4
[49] = test system: LOX IMVI
[50] = test system: SW-620
[51] = test system: OVCAR-8
[52] = test system: ACHN
[53] = test system: COLO 205
[54] = test system: UACC-62
[55] = test system: SN12C
[56] = test system: SNB-19
[57] = test system: SK-OV-3
[58] = test system: Malme-3M
[59] = test system: CCRF-CEM

N#CC(C#N)=C1C(=Cc2ccc(OCCCCCCCCCCSSCCCCCCCCCCOc3ccc(C=C4C(=C(C#N)C#N)c5ccccc5C4=C(C#N)C#N)cc3)cc2)C(=C(C#N)C#N)c2ccccc21
GI50 [1]: 20.8 µM (inactive)
GI50 [2]: 21.8 µM (inactive)
GI50 [3]: 47.4 µM (inactive)
GI50 [4]: 17.1 µM (inactive)
GI50 [5]: 31.6 µM (inactive)
GI50 [6]: 22 µM (inactive)
GI50 [7]: 21.8 µM (inactive)
GI50 [8]: 19.5 µM (inactive)
GI50 [9]: 22.1 µM (inactive)
GI50 [10]: 19.2 µM (inactive)
GI50 [11]: 17.8 µM (inactive)
GI50 [12]: 19.2 µM (inactive)
GI50 [13]: 17.7 µM (inactive)
GI50 [14]: 22.6 µM (inactive)
GI50 [15]: 39.5 µM (inactive)
GI50 [16]: 22.1 µM (inactive)
GI50 [17]: 16.7 µM
GI50 [18]: 16.1 µM (inactive)
GI50 [19]: 22.5 µM (inactive)
GI50 [20]: 28.6 µM (inactive)
GI50 [21]: 21.6 µM (inactive)
GI50 [22]: 17.3 µM (inactive)
GI50 [23]: 17 µM (inactive)
GI50 [24]: 20.3 µM (inactive)
GI50 [25]: 19.3 µM (inactive)
GI50 [26]: 39.2 µM (inactive)
GI50 [27]: 25.7 µM (inactive)
GI50 [28]: 15.5 µM (inactive)
GI50 [29]: 20.4 µM (inactive)
GI50 [30]: 18.2 µM (inactive)
GI50 [31]: 25.4 µM (inactive)
GI50 [32]: 38.7 µM (inactive)
GI50 [33]: 24.7 µM (inactive)
GI50 [34]: 29.7 µM (inactive)
GI50 [35]: 20.8 µM (inactive)
GI50 [36]: 42 µM (inactive)
GI50 [37]: 20.1 µM (inactive)
GI50 [38]: 20.8 µM (inactive)
GI50 [39]: 20.9 µM (inactive)
GI50 [40]: 24 µM (inactive)
GI50 [41]: 34.8 µM (inactive)
GI50 [42]: 0.0465 µM (active)
GI50 [43]: 23.7 µM (inactive)
GI50 [44]: 18.7 µM (inactive)
GI50 [45]: 25.8 µM (inactive)
GI50 [46]: 14.7 µM (inactive)
GI50 [47]: 19.5 µM (inactive)
GI50 [48]: 23.6 µM (inactive)
GI50 [49]: 18.5 µM (inactive)
GI50 [50]: 23.3 µM (inactive)
GI50 [51]: 31 µM (inactive)
GI50 [52]: 36.7 µM (inactive)

CC1(C)OCC(/C=C\C(O)CC2(C)OCCO2)CO1 (configuration not stated)
GI50 [1]: > 100 µM (inactive)
GI50 [53]: > 100 µM (inactive)
GI50 [2]: > 100 µM (inactive)
GI50 [3]: > 100 µM (inactive)
GI50 [4]: > 100 µM (inactive)
GI50 [5]: > 100 µM (inactive)
GI50 [6]: > 100 µM (inactive)
GI50 [7]: > 100 µM (inactive)
GI50 [8]: > 100 µM (inactive)
GI50 [9]: > 100 µM (inactive)
GI50 [10]: > 100 µM (inactive)
GI50 [11]: > 100 µM (inactive)
GI50 [12]: > 100 µM (inactive)
GI50 [13]: > 100 µM (inactive)
GI50 [15]: > 100 µM (inactive)
GI50 [16]: > 100 µM (inactive)
GI50 [17]: > 100 µM
GI50 [18]: > 100 µM (inactive)
GI50 [19]: > 100 µM (inactive)
GI50 [20]: > 100 µM (inactive)
GI50 [21]: > 100 µM (inactive)
GI50 [23]: > 100 µM (inactive)
GI50 [24]: > 100 µM (inactive)
GI50 [25]: > 100 µM (inactive)
GI50 [26]: > 100 µM (inactive)
GI50 [54]: > 100 µM (inactive)
GI50 [27]: > 100 µM (inactive)
GI50 [28]: > 100 µM (inactive)
GI50 [29]: > 100 µM (inactive)
GI50 [30]: > 100 µM (inactive)
GI50 [31]: > 100 µM (inactive)
GI50 [32]: > 100 µM (inactive)
GI50 [33]: > 100 µM (inactive)
GI50 [34]: > 100 µM (inactive)
GI50 [55]: > 100 µM (inactive)
GI50 [35]: > 100 µM (inactive)
GI50 [36]: > 100 µM (inactive)
GI50 [37]: > 100 µM (inactive)
GI50 [38]: > 100 µM (inactive)
GI50 [39]: > 100 µM (inactive)
GI50 [40]: > 100 µM (inactive)
GI50 [56]: > 100 µM (inactive)
GI50 [41]: > 100 µM (inactive)
GI50 [57]: > 100 µM (inactive)
GI50 [42]: > 100 µM (inactive)
GI50 [43]: > 100 µM (inactive)
GI50 [44]: > 100 µM (inactive)
GI50 [45]: > 100 µM (inactive)
GI50 [46]: > 100 µM (inactive)
GI50 [47]: > 100 µM (inactive)
GI50 [48]: > 100 µM (inactive)
GI50 [49]: > 100 µM (inactive)
GI50 [50]: > 100 µM (inactive)
GI50 [51]: > 100 µM (inactive)
GI50 [52]: > 100 µM (inactive)

Cc1nc(C)c(N2CCN(Cc3ccccc3)CC2)c(O)n1
GI50 [1]: > 100 µM (inactive)
GI50 [53]: > 100 µM (inactive)
GI50 [2]: > 100 µM (inactive)
GI50 [3]: > 100 µM (inactive)
GI50 [4]: > 100 µM (inactive)
GI50 [58]: > 100 µM (inactive)
GI50 [5]: > 100 µM (inactive)
GI50 [6]: > 100 µM (inactive)
GI50 [7]: > 100 µM (inactive)
GI50 [8]: > 100 µM (inactive)
GI50 [9]: > 100 µM (inactive)
GI50 [10]: > 100 µM (inactive)
GI50 [11]: > 100 µM (inactive)
GI50 [12]: > 100 µM (inactive)
GI50 [13]: > 100 µM (inactive)
GI50 [14]: > 100 µM (inactive)
GI50 [15]: > 100 µM (inactive)
GI50 [16]: > 100 µM (inactive)
GI50 [17]: > 100 µM
GI50 [18]: > 100 µM (inactive)
GI50 [19]: > 100 µM (inactive)
GI50 [20]: > 100 µM (inactive)
GI50 [21]: > 100 µM (inactive)
GI50 [22]: > 100 µM (inactive)
GI50 [23]: > 100 µM (inactive)
GI50 [24]: > 100 µM (inactive)
GI50 [25]: > 100 µM (inactive)
GI50 [26]: > 100 µM (inactive)
GI50 [54]: > 100 µM (inactive)
GI50 [28]: > 100 µM (inactive)
GI50 [29]: > 100 µM (inactive)
GI50 [30]: > 100 µM (inactive)
GI50 [31]: > 100 µM (inactive)
GI50 [32]: > 100 µM (inactive)
GI50 [34]: > 100 µM (inactive)
GI50 [55]: > 100 µM (inactive)
GI50 [36]: > 100 µM (inactive)
GI50 [37]: > 100 µM (inactive)
GI50 [38]: > 100 µM (inactive)
GI50 [39]: > 100 µM (inactive)
GI50 [40]: > 100 µM (inactive)
GI50 [56]: > 100 µM (inactive)
GI50 [41]: > 100 µM (inactive)
GI50 [57]: > 100 µM (inactive)
GI50 [42]: > 100 µM (inactive)
GI50 [43]: > 100 µM (inactive)
GI50 [44]: > 100 µM (inactive)
GI50 [46]: > 100 µM (inactive)
GI50 [47]: > 100 µM (inactive)
GI50 [48]: > 100 µM (inactive)
GI50 [49]: > 100 µM (inactive)
GI50 [59]: > 100 µM (inactive)
GI50 [50]: > 100 µM (inactive)
GI50 [51]: > 100 µM (inactive)
GI50 [52]: > 100 µM (inactive)
